Assay results taken from patent US20230313199A1, “TARGET FOR MODULATING BODY MASS” (Massachusetts Institute of Technology, priority 2020, published 2023).

Tested on: 4B8^ΔN cells
Experiment: OCR, ECAR, FPT intensity and MMP in 4B8 cells complemented with NTD-truncated MFSD7C
Format: cell-based, human
Details: heme 1 hour
Protocol: FIGS. 4A-4H show NTD of MFSD7C mediates heme effect on mitochondrial respiration. FIGS. 4A-4C show comparison of basal OCR (FIG. 4A), maximal OCR (FIG. 4B) and ECAR (FIG. 4C) of THP-1, 4B8, and 4B8^FL and 4B8^ΔN cells treated with vehicle or heme for 1 hour (n=18 separate experiments). […] Cells were incubated with FPT for 6 hrs, washed and reseeded in poly-lysine coated glass bottom dishes. After cells attached to the glass, medium containing 40 μM heme was added. Cells in the same field were imaged immediately and again 1 hour later. Relative FPT fluorescent intensities, normalized to THP-1, from three experiments are shown. (n=3 independent experiments). […] THP-1, 4B8, 4B8^FL and 4B8^ΔN cells were treated with vehicle or heme for 1 hour and MMP was measured by using JC-10 Mitochondrial Membrane Potential Assay Kit followed by flow cytometry. […] Shown are representative Western blotting data (FIG. 4G) and quantification of band intensities from n=3 independent experiments (FIG. 4H). P-values were calculated using two-way ANOVA (*p<0.05, **p<0.01, ***p<0.005). […]
Measurements of OCR, ECAR, and MMP. Oxygen consumption rate (OCR) and extracellular acidification rate (ECAR) were measured using XF96e Seahorse Extracellular Flux Analyzer per manufacturer's protocol. […]

## C=CC1=C(C)c2cc3[n-]c(cc4[n-]c(cc5nc(cc1n2)C(C)=C5C=C)c(C)c4CCC(=O)O)c(CCC(=O)O)c3C.[Fe+2] [heme]
  response to heme (OCR, ECAR, FPT intensity, MMP): little to no response to heme
